Measurements: patent publication US10011615B2, “Heterobicyclo-substituted [1,2,4]triazolo[1,5-c]quinazolin-5-amine compounds with A2A anatagonist properties” (Merck Sharp & Dohme Corp., priority 2012, dated 2018)

Target: T1, human A2a receptor (Homo sapiens, UniProt P29274)
T1 construct: purchased Perkin-Elmer RBHA2AM400UA; host or cells: HEK293 cell membranes
Test: A2a receptor competition binding assay using Scintillation Proximity technology
Settings: membranes from HEK293 cells expressing human A2a receptor; 0.5 nM tritiated radioligand; SPA beads; 1 h room temperature
Procedure: Binding affinities of compounds of the invention for the human A2a receptor were determined in a competition binding assay using Scintillation Proximity technology. Thus, 0.3 μg of membranes from HEK293 cells expressing the human A2a receptor were incubated with a compound of the invention at concentrations ranging from 3000 nM to 0.15 nM in a reaction mixture containing also 0.5 nM of a tritiated form of 5-amino-7-[2-phenethyl]-2-(furan-2-yl)-7H-pyrazolo[4,3-e][1,2,4]triazolo[1,5-c]pyrimidine (the tritiated compound) and 100 μg of wheat germ agglutin-coated yttrium silicate SPA beads for one hour at room temperature with agitation. The beads were then allowed to settle to the bottom of the wells for 1 hr, after which the membrane-associated radioactivity was determined by scintillation counting in a TopCount microplate reader. Ki values were determined using the Cheng-Prusoff equation.
Summary of Materials and Methods Used in A2a Activity Determination:
HEK293 cells expressing the human, rat, dog or monkey adenosine 2a receptor (Purchased from Perkin-Elmer # RBHA2AM400UA).
The Tritiated compound was prepared in-house by MRL Radiochemistry according to published methods.
Wheat germ agglutinin-coated yttrium silicate SPA beads (GE Healthcare#RPNQ0023). Dilute to 25 mg/ml in assay buffer.
Assay Buffer was prepared in house: Dulbecco's calcium and magnesium free phosphate buffered saline+10 mM MgCl2
Adenosine deaminase from calf intestine, 10 mg/2 ml (Roche) 10 102 105 001).
A2a antagonist standard (9-chloro-1-(2-furanyl)-[1,2,4]triazolo1,5-c]quinazolin-5-amine from Tocris Bioscience)
Make eight 1:3 serial dilutions in 100% DMSO from a 3 mM compound stock
Transfer 50 nl of compound into a 384-well OptiPlate (Perkin Elmer).
Typically, final concentrations of compound used in the assay ranged from 3000 nM to 0.152 nM.
Dilute a solution of the Tritiated compound to 1.25 nM in assay buffer. This is a 2.5× solution. The final concentration in the assay is 0.5 nM. Calculate the concentration by counting two 5 μl aliquots.
Use 0.25 ug of membrane/well. Dilute membranes to 9.7 μg/ml in assay buffer. Treat with 20 ug/ml adenosine deaminase (ADA) for 15 minutes at room temperature to degrade endogenous adenosine.
Use 100 μg/well wheat germ agglutinin-coated yttrium silicate SPA beads.
Mix ADA-treated membranes and SPA beads together for 30 min prior to assay.
To the Perkin-Elmer Optiplate-384 containing the compound titration add 20 μl of 2.5× solution of the Tritiated compound and 30 μl of the membrane-bead mixture. Incubate for one hour at room temperature with agitation.
Include total binding (assay buffer+1% DMSO) and non-specific binding (CGS15943, 1 μM) wells.
Allow the beads to settle for one hour.
A curve fitting program (i.e., Prism, Activity Base, Chemcart) is used to determine the EC50. The Ki value is calculated using the Cheng-Prusoff equation: K i=EC50/(1+(radioligand concentration/Kd)).

T1 sequence (P29274 whole entry): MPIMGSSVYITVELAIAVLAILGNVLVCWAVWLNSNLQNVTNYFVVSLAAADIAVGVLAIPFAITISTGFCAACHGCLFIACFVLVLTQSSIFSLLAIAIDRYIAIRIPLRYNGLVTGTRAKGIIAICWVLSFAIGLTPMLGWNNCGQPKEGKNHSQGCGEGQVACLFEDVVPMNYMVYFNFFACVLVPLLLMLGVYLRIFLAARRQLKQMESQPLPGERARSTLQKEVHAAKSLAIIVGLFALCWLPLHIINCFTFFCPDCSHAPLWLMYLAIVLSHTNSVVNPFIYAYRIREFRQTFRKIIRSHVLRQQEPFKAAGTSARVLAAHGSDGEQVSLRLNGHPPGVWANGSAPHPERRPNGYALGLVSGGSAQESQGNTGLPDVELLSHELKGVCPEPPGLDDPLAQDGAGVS

| Compound | EC50 |
| --- | --- |
| COc1cccc2c1nc(N)n1nc(CCN3CCc4nc(C5CC5)sc4C3)nc21 [Ex-30, 2-(2-(2-cyclopropyl-6,7-dihydrothiazolo[5,4-c]pyridin-5(4H)-yl)ethyl)-7-methoxy-[1,2,4]triazolo[1,5-c]quinazolin-5-amine] | 1.1 nM |
| COc1cccc2c1nc(N)n1nc(CCN3CCc4nc(C5CC5)oc4C3)nc21 [Ex-31, 2-(2-(2-cyclopropyl-6,7-dihydrooxazolo[5,4-c]pyridin-5(4H)-yl)ethyl)-7-methoxy[1,2,4]triazolo[1,5-c]quinazolin-5-amine] | 1.3 nM |
| COc1cccc2c1nc(N)n1nc(CCN3CCc4c(c(C(F)(F)F)nn4C)C3)nc21 [Ex-32, 7-methoxy-2-(2-(1-methyl-3-(trifluoromethyl)-677-dihydro-1H-pyrazolo[4,3-c]pyridin-5(4H)-yl)ethyl)-[1,2,4]triazolo[1,5-c]quinazolin-5-amine] | 1.4 nM |
| COc1cccc2c1nc(N)n1nc(CCN3Cc4nc(-c5ccccc5)[nH]c4C3)nc21 [Ex-34] | 1.7 nM |
| COc1cccc2c1nc(N)n1nc(CCN3CCc4[nH]nc(C)c4C3)nc21 [Ex-37, 7-methoxy-2-(2-(3-methyl-6,7-dihydro-1H-pyrazolo[4,3-c]pyridin-5(4H)-yl)ethyl)-[1,2,4]triazolo[1,5-c]quinazolin-5-amine] | 6.4 nM |
| COc1cccc2c1nc(N)n1nc(CCN3CCc4[nH]nc(C(F)(F)F)c4C3)nc21 [Ex-38, 7-methoxy-2-(2-(3-(trifluoromethyl)-6,7-dihydro-1H-pyrazolo[4,3-c]pyridin-5(4H)-yl)ethyl)-[1,2,4]triazolo[1,5-c]quinazolin-5-amine] | 2 nM |
| COc1cccc2c1nc(N)n1nc(CCN3CCc4c(C5CC5)n[nH]c4C3)nc21 [Ex-40, 2-(2-(3-cyclopropyl-4,5-dihydro-1H-pyrazolo[3,4-c]pyridin-6(7H)-yl)ethyl)-7-methoxy-[1,2,4]triazolo[1,5-c]quinazolin-5-amine] | 1.1 nM |
| COc1cccc2c1nc(N)n1nc(CCN3CCc4c(C(F)(F)F)n[nH]c4C3)nc21 [Ex-42, 7-methoxy-2-(2-(3-(trifluoromethyl)-4,5-dihydro-1H-pyrazolo[3,4-c]pyridin-6(7H)-yl)ethyl)-[1,2,4]triazolo[1,5-c]quinazolin-5-amine] | 1.4 nM |
| COc1cccc2c1nc(N)n1nc(CCN3Cc4ccc(C(F)(F)F)cc4C3)nc21 [Ex-46, 7-methoxy-2-(2-(5-(trifluoromethyl)isoindolin-2-yl)ethyl)-[1,2,4]triazolo[1,5-c]quinazolin-5-amine] | 18 nM |
| COc1cccc2c1nc(N)n1nc(CCN3Cc4ccc(F)cc4C3)nc21 [Ex-48, 2-(2-(5-fluoroisoindolin-2-yl)ethyl)-7-methoxy-[1,2,4]triazolo[1,5-c]quinazolin-5-amine] | 4.6 nM |
| COc1cccc2c1nc(N)n1nc(CCN3Cc4[nH]nc(-c5ccccc5)c4C3)nc21 [Ex-50, 7-methoxy-2-(2-(3-phenylpyrrolo[3,4-c]pyrazol-5(1H,4H,6H)-yl)ethyl)-[1,2,4]triazolo[1,5-c]quinazolin-5-amine] | 1.5 nM |
| COc1cccc2c1nc(N)n1nc(CCN3Cc4cn[nH]c4C3)nc21 [Ex-51, 7-methoxy-2-(2-(pyrrolo[3,4-c]pyrazol-5(1H,4H,6H)--yl)ethyl)-[1,2,4]triazolo[1,5-c]quinazolin-5-amine] | 2.9 nM |
| COc1cccc2c1nc(N)n1nc(CCN3CCn4cc(C(F)(F)F)nc4C3)nc21 [Ex-58, 7-methoxy-2-(2-(2-(trifluoromethyl)-5,6-dihydroimidazo[1,2-a]pyrazin-7(8H)-yl)ethyl)-[1,2,4]triazolo[1,5-c]quinazolin-5-amine] | 0.9 nM |

Continued, values first:

| EC50 | Compound |
| --- | --- |
| 4.2 nM | COc1cccc2c1nc(N)n1nc(CCN3CCn4nccc43)nc21 [Ex-33, 2-(2-(2,3-dihydro-1H-imidazo[1,2-b]pyrazol-1-yl)ethyl)-7-methoxy-[1,2,4]triazolo[1,5-c]quinazolin-5-amine] |
| 2.3 nM | COc1cccc2c1nc(N)n1nc(CCN3CCc4oncc4C3)nc21 [Ex-35, 2-(2-(6,7-dihydroisoxazolo[4,5-c]pyridin-5(4H)-yl)ethyl)-7-methoxy-[1,2,4]triazolo[1,5-c]quinazolin-5-amine] |
| 6.7 nM | COc1cccc2c1nc(N)n1nc(CCN3CCc4[nH]ncc4C3)nc21 [Ex-36, 2-(2-(6,7-dihydro-1H-pyrazolo[4,3-c]pyridin-5(4H)-yl)ethyl)-7-methoxy-[1,2,4]triazolo[1,5-c]quinazolin-5-amine] |
| 1.8 nM | COc1cccc2c1nc(N)n1nc(CCN3CCc4sccc4C3)nc21 [Ex-39] |
| 2.6 nM | COc1cccc2c1nc(N)n1nc(CCN3CCn4nc(C)cc4C3)nc21 [Ex-41, 7-methoxy-2-(2-(2-methyl-6,7-dihydropyrazolo[1,5-a]pyrazin-5(4H)-yl)ethyl)-[1,2,4]triazolo[1,5-c]quinazolin-5-amine] |
| 8.4 nM | COc1cccc2c1nc(N)n1nc(CCN3CCCc4c3c(C(F)(F)F)nn4C)nc21 [Ex-43, 7-methoxy-2-(2-(1-methyl-3-(trifluoromethyl)-6,7-dihydro-1H-pyrazolo[4,3-b]pyridin-4(5H)-yl)ethyl)-[1,2,4]triazolo[1,5-c]quinazolin-5-amine] |
| 4.2 nM | COc1cccc2c1nc(N)n1nc(CCN3CCc4cc(F)ccc4C3)nc21 [Ex-44, 2-(2-(6-fluoro-3,4-dihydroisoquinolin-2(1H)-yl)ethyl)-7-methoxy-[1,2,4]triazolo[1,5-c]quinazolin-5-amine] |
| 4.3 nM | COc1cccc2c1nc(N)n1nc(CCN3CCc4cccnc4C3)nc21 [Ex-45, 2-(2-(5,6-dihydro-1,7-naphthyridin-7(8H)-yl)ethyl)-7-methoxy-[1,2,4]triazolo[1,5-c]quinazolin-5-amine] |
| 5.4 nM | COc1cccc2c1nc(N)n1nc(CCN3Cc4cccnc4C3)nc21 [Ex-49, 2-(2-(5H-pyrrolo[3,4-b]pyridin-6(7H)-yl)ethyl)-7-methoxy-[1,2,4]triazolo[1,5-c]quinazolin-5-amine] |
| 8.8 nM | COc1cccc2c1nc(N)n1nc(CCN3CCCc4[nH]nc(C5CC5)c43)nc21 [Ex-52, 2-(2-(3-cyc1opropyl-6,7-dihydro-1H-pyrazolo[4,3-b]pyridin-4(5H)-yl)ethyl)-7-methoxy[1,2,4]triazolo[1,5-c]quinazolin-5-amine] |
| 2.4 nM | COc1cccc2c1nc(N)n1nc(CCN3CCc4cncnc4C3)nc21 [Ex-53, 2-(2-(5,6-dihydropyrido[3,4-d]pyrimidin-7(8H)-yl)ethyl)-7-methoxy-[1,2,4]triazolo[1,5-c]quinazolin-5-amine] |
| 4 nM | COc1cccc2c1nc(N)n1nc(CCN3CCc4ncncc4C3)nc21 [Ex-54, 2-(2-(7,8-dihydropyrido[4,3-d]pyrimidin-6(5H)-yl)ethyl)-7-methoxy-[1,2,4]triazolo[1,5-c]quinazolin-5-amine] |
| 1.8 nM | COc1cccc2c1nc(N)n1nc(CCN3CCc4nccnc4C3)nc21 [Ex-55, 2-(2-(7,8-dihydropyrido[4,3-b]pyrazin-6(5H)-yl)ethyl)-7-methoxy-[1,2,4]triazolo[1,5-c]quinazolin-5-amine] |
| 3.4 nM | COc1cccc2c1nc(N)n1nc(CCN3CCc4ncsc4C3)nc21 [Ex-56, 2-(2-(6,7-dihydrothiazolo[5,4-c]pyridin-5(4H)-yl)ethyl)-7-methoxy-[1,2,4]triazolo[1,5-c]quinazolin-5-amine] |
| 1.7 nM | COc1cccc2c1nc(N)n1nc(CCN3CCc4scnc4C3)nc21 [Ex-57, 2-(2-(6,7-dihydrothiazolo[4,5-c]pyridin-5(4H)-yl)ethyl)-7-methoxy-[1,2,4]triazolo[1,5-c]quinazolin-5-amine] |
| 9.6 nM | COc1cccc2c1nc(N)n1nc(CCN3CCCn4nccc43)nc21 [Ex-59, 2-(2-(6,7-dihydropyrazolo[1,5-a]pyrimidin-4(5H)-yl)ethyl)-7-methoxy-[1,2,4]triazolo[1,5-c]quinazolin-5-amine] |
| 2.3 nM | COc1cccc2c1nc(N)n1nc(CCN3CCCn4nc(C)cc4C3)nc21 [Ex-60, 7-methoxy-2-(2-(2-methyl-7,8-dihydro-4H-pyrazolo[1,5-a][1,4]diazepin-5(6H)-yl)ethyl)-[1,2,4]triazolo[1,5-c]quinazolin-5-amine] |
